Results from PubChem BioAssay (NCI).
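Where inhibition never reached the appropriate level, the endpoint shown equals the highest concentration tested. Otherwise, values were interpolated linearly from a five-concentration, 48-hour dose response in 96-well plates. GI50 is the concentration that inhibits growth by half. TGI marks complete inhibition of growth.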

Legend:
Assay in all cases: NCI tumour cell line growth inhibition, 48 h
NCI-H226 lung = tested on: NCI-H226 lung
MOLT-4 leukemia = tested on: MOLT-4 leukemia
MDA-MB-435 = tested on: MDA-MB-435
PC-3 prostate = tested on: PC-3 prostate
HL-60(TB) leukemia = tested on: HL-60(TB) leukemia
SN12C renal = tested on: SN12C renal
TK-10 renal = tested on: TK-10 renal
KM12 colon = tested on: KM12 colon
NCI/ADR-RES ovarian = tested on: NCI/ADR-RES ovarian
UACC-62 melanoma = tested on: UACC-62 melanoma
MALME-3M melanoma = tested on: MALME-3M melanoma
DU-145 prostate = tested on: DU-145 prostate
OVCAR-8 ovarian = tested on: OVCAR-8 ovarian
UO-31 renal = tested on: UO-31 renal
SW-620 colon = tested on: SW-620 colon
ACHN renal = tested on: ACHN renal
BT-549 breast = tested on: BT-549 breast
SF-268 CNS = tested on: SF-268 CNS
SK-MEL-5 melanoma = tested on: SK-MEL-5 melanoma
SK-OV-3 ovarian = tested on: SK-OV-3 ovarian
HCT-15 colon = tested on: HCT-15 colon
CCRF-CEM leukemia = tested on: CCRF-CEM leukemia
A498 renal = tested on: A498 renal
SF-295 CNS = tested on: SF-295 CNS
COLO 205 colon = tested on: COLO 205 colon
SK-MEL-2 melanoma = tested on: SK-MEL-2 melanoma
HCT-116 colon = tested on: HCT-116 colon
786-0 renal = tested on: 786-0 renal
NCI-H23 lung = tested on: NCI-H23 lung
U251 CNS = tested on: U251 CNS
MDA-MB-231 breast = tested on: MDA-MB-231 breast
SR leukemia = tested on: SR leukemia
OVCAR-4 ovarian = tested on: OVCAR-4 ovarian
CAKI-1 renal = tested on: CAKI-1 renal
HT29 colon = tested on: HT29 colon
HS 578T breast = tested on: HS 578T breast
M14 melanoma = tested on: M14 melanoma
OVCAR-3 ovarian = tested on: OVCAR-3 ovarian
K-562 leukemia = tested on: K-562 leukemia
HOP-92 NSCLC = tested on: HOP-92 NSCLC
OVCAR-5 ovarian = tested on: OVCAR-5 ovarian
LOX IMVI melanoma = tested on: LOX IMVI melanoma
HCC-2998 colon = tested on: HCC-2998 colon
SNB-75 CNS = tested on: SNB-75 CNS
NCI-H522 lung = tested on: NCI-H522 lung
SK-MEL-28 melanoma = tested on: SK-MEL-28 melanoma
MCF7 breast = tested on: MCF7 breast
RXF 393 renal = tested on: RXF 393 renal
IGROV1 ovarian = tested on: IGROV1 ovarian
HOP-62 NSCLC = tested on: HOP-62 NSCLC
RPMI-8226 leukemia = tested on: RPMI-8226 leukemia
SNB-19 CNS = tested on: SNB-19 CNS
T-47D breast = tested on: T-47D breast
NCI-H460 lung = tested on: NCI-H460 lung
UACC-257 melanoma = tested on: UACC-257 melanoma
A549 NSCLC = tested on: A549 NSCLC
SF-539 CNS = tested on: SF-539 CNS

## C/C(=C1\SC(=NCc2cccs2)NC1=O)c1ccc2ncccc2c1
NCI-H226 lung
  GI50: 21.5 µM
  TGI: > 25 µM
MOLT-4 leukemia
  GI50: 9.56 µM
  TGI: > 25 µM
MDA-MB-435
  GI50: 7.55 µM
  TGI: > 25 µM
PC-3 prostate
  GI50: 12.7 µM
  TGI: > 25 µM
HL-60(TB) leukemia
  GI50: 9.36 µM
  TGI: > 25 µM
SN12C renal
  GI50: 12.6 µM
  TGI: > 25 µM
TK-10 renal
  GI50: > 25 µM
  TGI: > 25 µM
KM12 colon
  GI50: 13.1 µM
  TGI: > 25 µM
NCI/ADR-RES ovarian
  GI50: 20.1 µM
  TGI: > 25 µM
UACC-62 melanoma
  GI50: > 19.3 µM
  TGI: > 25 µM
MALME-3M melanoma
  GI50: > 25 µM
  TGI: > 25 µM
DU-145 prostate
  GI50: > 25 µM
  TGI: > 25 µM
OVCAR-8 ovarian
  GI50: 14.7 µM
  TGI: > 25 µM
UO-31 renal
  GI50: 10.1 µM
  TGI: > 25 µM
SW-620 colon
  GI50: 10.1 µM
  TGI: > 25 µM
ACHN renal
  GI50: 18.7 µM
  TGI: > 25 µM
BT-549 breast
  GI50: > 25 µM
  TGI: > 25 µM
SF-268 CNS
  GI50: 18 µM
  TGI: > 25 µM
SK-MEL-5 melanoma
  GI50: 8.21 µM
  TGI: > 25 µM
SK-OV-3 ovarian
  GI50: > 25 µM
  TGI: > 25 µM
HCT-15 colon
  GI50: 10.9 µM
  TGI: > 25 µM
CCRF-CEM leukemia
  GI50: 10.2 µM
  TGI: > 25 µM
A498 renal
  GI50: 13.5 µM
  TGI: > 25 µM
SF-295 CNS
  GI50: 11.4 µM
  TGI: > 25 µM
COLO 205 colon
  GI50: 12.4 µM
  TGI: > 25 µM
SK-MEL-2 melanoma
  GI50: > 25 µM
  TGI: > 25 µM
HCT-116 colon
  GI50: 11 µM
  TGI: > 25 µM
786-0 renal
  GI50: > 23.1 µM
  TGI: > 25 µM
NCI-H23 lung
  GI50: 22.2 µM
  TGI: > 25 µM
U251 CNS
  GI50: 11.7 µM
  TGI: > 25 µM
MDA-MB-231 breast
  GI50: 7.24 µM
  TGI: > 25 µM
SR leukemia
  GI50: 7.06 µM
  TGI: > 21.7 µM
OVCAR-4 ovarian
  GI50: 18.1 µM
  TGI: > 25 µM
CAKI-1 renal
  GI50: 11.1 µM
  TGI: > 25 µM
HT29 colon
  GI50: 10.9 µM
  TGI: > 25 µM
HS 578T breast
  GI50: 9.15 µM
  TGI: > 25 µM
M14 melanoma
  GI50: 13.9 µM
  TGI: > 25 µM
OVCAR-3 ovarian
  GI50: 18.1 µM
  TGI: > 25 µM
K-562 leukemia
  GI50: 8.71 µM
  TGI: > 25 µM
HOP-92 NSCLC
  GI50: 7.08 µM
  TGI: > 25 µM
OVCAR-5 ovarian
  GI50: > 25 µM
  TGI: > 25 µM
LOX IMVI melanoma
  GI50: 13.8 µM
  TGI: > 25 µM
HCC-2998 colon
  GI50: > 25 µM
  TGI: > 25 µM
SNB-75 CNS
  GI50: 3.93 µM
  TGI: > 23.3 µM
NCI-H522 lung
  GI50: 8.56 µM
  TGI: > 25 µM
SK-MEL-28 melanoma
  GI50: > 25 µM
  TGI: > 25 µM
MCF7 breast
  GI50: 11.7 µM
  TGI: > 25 µM
RXF 393 renal
  GI50: > 25 µM
  TGI: > 25 µM
IGROV1 ovarian
  GI50: > 25 µM
  TGI: > 25 µM
HOP-62 NSCLC
  GI50: 21.8 µM
  TGI: > 25 µM
RPMI-8226 leukemia
  GI50: 13 µM
  TGI: > 25 µM
SNB-19 CNS
  GI50: 13.6 µM
  TGI: > 25 µM
T-47D breast
  GI50: 15.1 µM
  TGI: > 25 µM
NCI-H460 lung
  GI50: 9.27 µM
  TGI: > 25 µM
UACC-257 melanoma
  GI50: > 25 µM
  TGI: > 25 µM
A549 NSCLC
  GI50: 12.2 µM
  TGI: > 25 µM
SF-539 CNS
  GI50: 9.5 µM
  TGI: > 25 µM
